The source of these data is ChEMBL document CHEMBL1201862, “PubChem BioAssay data set” (2004).

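In this assay, cells in 96-well plates receive the compound at five concentrations for 48 hours. Endpoints are linearly interpolated between the surrounding concentrations. The concentration for 50% growth inhibition is given as GI50.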 Activity calls are given as the source filed them. No stated cut-off is given here; in the data, active = GI50 up to about 1.1 µM and inactive = higher.

Test systems include 786-0; A498; A549; ACHN; DU-145; EKVX; HOP-62; Hs-578T; M14; Malme-3M; PC-3; RPMI-8226; SF-295; SK-MEL-5; SK-OV-3; SR; MDA-MB-231; NCI-H460; SNB-75; TK-10.
What all share (assay): NCI anticancer screen, dose series, 48 h

`COP(=O)(OC)C(O)/C=C/c1ccco1` (centres undefined): the GI50 in the assay with 786-0, in the assay with A498, in the assay with A549, in the assay with ACHN, in the assay on DU-145 and in the assay with EKVX was > 100 µM (inactive) in each case. For the same molecule, the GI50 in the assay with HOP-62, with Hs-578T, in the assay with M14, in the assay on Malme-3M, in the assay with PC-3 and in the assay on RPMI-8226 was > 100 µM (inactive) throughout. For the same molecule, the GI50 with SF-295, in the assay with SK-MEL-5, in the assay on SK-OV-3 and with SR was > 100 µM (inactive) each time.

With `CCCCCCCCP(=O)(O)OP(=O)(O)OCC1OC(n2ccc(N)nc2=O)C(O)C1O` (centres undefined), the GI50 in the assay with 786-0, in the assay on A498, with A549, with ACHN, in the assay with EKVX and in the assay with HOP-62 was > 100 µM (inactive) in each case. Moreover, the GI50 in the assay with Hs-578T, in the assay with M14, with MDA-MB-231, in the assay on Malme-3M, in the assay on NCI-H460 and with PC-3 was > 100 µM (inactive) each time. Further, the GI50 in the assay on RPMI-8226, with SF-295, in the assay on SK-MEL-5, in the assay with SK-OV-3, in the assay on SNB-75 and in the assay on TK-10 was > 100 µM (inactive) each time.

Regarding `OC1OC(c2ccco2)C(F)(F)C(F)(F)C1(F)F` (centres undefined), the GI50 with 786-0 is > 100 µM (inactive); with A498 it was > 100 µM (inactive); with A549 it was 74 µM (inactive); in the assay on ACHN, > 100 µM (inactive); with DU-145, > 100 µM (inactive); in the assay on EKVX, 81.7 µM (inactive). The GI50 with HOP-62 is > 100 µM (inactive); with Hs-578T, 18.2 µM (inactive); with M14 it was > 100 µM (inactive); with MDA-MB-231, 65.6 µM (inactive); in the assay on Malme-3M, 51.8 µM (inactive); with NCI-H460, > 100 µM (inactive). The GI50 in the assay on PC-3 is > 100 µM (inactive); in the assay with RPMI-8226, 39.8 µM (inactive); with SF-295, 68.7 µM (inactive); in the assay with SK-MEL-5 it was 35.2 µM (inactive); in the assay with SK-OV-3 it was > 100 µM (inactive); in the assay with TK-10, > 100 µM (inactive).

On to `CN(C)C(=S)N/N=C\C(=N/NC(=S)N(C)C)c1ccccc1`, for which the GI50 was 7.33 µM (inactive) in the assay on 786-0; 7.21 µM (inactive) in the assay on A498; 5.31 µM (inactive) in the assay on A549; 3.72 µM (inactive) in the assay with ACHN; 4.23 µM (inactive) with DU-145; 7.36 µM (inactive) with EKVX. In addition, the GI50 in the assay with HOP-62 is 6.05 µM (inactive); with Hs-578T it was 4.57 µM (inactive); in the assay with M14, 5.51 µM (inactive); in the assay on MDA-MB-231, 19.3 µM (inactive); in the assay with NCI-H460, 1.36 µM (inactive); in the assay with RPMI-8226 it was 4.68 µM (inactive). Also, the GI50 in the assay on SF-295 is 4.93 µM (inactive); in the assay with SK-MEL-5, 9.84 µM (inactive); with SK-OV-3, 12.3 µM (inactive); in the assay on SNB-75 it was 13.4 µM (inactive); in the assay on TK-10 it was 6.87 µM (inactive).

In the case of `N#CCCN(CCC#N)c1ccc(/C=C2\N=C(c3ccccc3)N(NC(N)=S)C2=O)cc1`, the GI50 with 786-0, in the assay on A498, with A549, in the assay on ACHN, in the assay with DU-145 and in the assay with EKVX was > 100 µM (inactive) in each case. The GI50 in the assay with HOP-62, in the assay on Hs-578T, with M14, in the assay on MDA-MB-231, with Malme-3M and with NCI-H460 was > 100 µM (inactive) in each case. For the same molecule, the GI50 in the assay on PC-3, in the assay with RPMI-8226, in the assay with SF-295, in the assay with SK-MEL-5, in the assay on SK-OV-3 and in the assay with TK-10 was > 100 µM (inactive) in each case.

Turning to `Cc1c(N)nc([C@H](CC(N)=O)NC[C@H](N)C(N)=O)nc1C(=O)N[C@H](C(=O)N[C@H](C)[C@@H](O)[C@H](C)C(=O)N[C@H](C(=O)NCCc1nc(-c2nc(C(=O)NCCC[S+](C)C)cs2)cs1)[C@@H](C)O)C(OC1OC(CO)C(O)C(O)C1OC1OC(CO)C(O)C(OC(N)=O)C1O)c1c[nH]cn1` (some centres undefined), the GI50 is 1.05 µM (active) with 786-0; 3.24 µM (inactive) in the assay with A498; 0.716 µM (active) in the assay with A549; 0.00802 µM (active) in the assay with ACHN; 3.66 µM (inactive) in the assay with DU-145; 17.8 µM (inactive) in the assay with EKVX. Moreover, the GI50 with HOP-62 is 0.0838 µM (active); in the assay on M14 it was 1.56 µM (inactive); with MDA-MB-231, 15.8 µM (inactive); in the assay with Malme-3M it was 0.356 µM (active); with NCI-H460, 0.0644 µM (active); in the assay with PC-3, 7.73 µM (inactive). Moreover, the GI50 is 17 µM (inactive) with RPMI-8226; 0.114 µM (active) in the assay on SF-295; 0.776 µM (active) with SK-MEL-5; 6.46 µM (inactive) with SK-OV-3; 0.426 µM (active) with SNB-75; 0.109 µM (active) with SR. The GI50 in the assay with TK-10 was 10.8 µM (inactive).

As to `Cc1cc(=O)oc2cc(OCc3c(F)cccc3Cl)ccc12`, the GI50 in the assay with 786-0 was 11.6 µM (inactive); in the assay on A498, > 100 µM (inactive); in the assay with A549, > 100 µM (inactive); with ACHN it was 79.8 µM (inactive); with DU-145, > 100 µM (inactive); in the assay with HOP-62 it was 13 µM (inactive). In addition, the GI50 with Hs-578T is 21.9 µM (inactive); in the assay on M14 it was 9.35 µM (inactive); with MDA-MB-231, 4.07 µM (inactive); in the assay with Malme-3M, 0.728 µM (active); in the assay with PC-3 it was 3.56 µM (inactive); in the assay with SF-295, 17.5 µM (inactive). Further, the GI50 was 3.66 µM (inactive) in the assay with SK-MEL-5, 9.02 µM (inactive) in the assay with SNB-75 and > 100 µM (inactive) with TK-10.

On to `O=C(CC(C(=O)c1ccsc1)c1ccccc1)c1cccs1` (centres undefined), for which the GI50 is > 100 µM (inactive) in the assay on 786-0; 77.6 µM (inactive) with A498; 67.6 µM (inactive) in the assay with ACHN; > 100 µM (inactive) with DU-145; > 100 µM (inactive) with EKVX; > 100 µM (inactive) in the assay with HOP-62. Besides, the GI50 in the assay with Hs-578T is 58.7 µM (inactive); with M14, 24.8 µM (inactive); with MDA-MB-231, 22.2 µM (inactive); in the assay on NCI-H460, 27.1 µM (inactive); with RPMI-8226, > 100 µM (inactive); in the assay on SF-295 it was 33.3 µM (inactive). Also, the GI50 with SK-MEL-5 is 43.2 µM (inactive); in the assay on SK-OV-3, > 100 µM (inactive); in the assay with SNB-75 it was 72.6 µM (inactive); in the assay with SR it was 57.4 µM (inactive); in the assay with TK-10, > 100 µM (inactive).

For `O=C(O)C1OC1C(=O)O` (centres undefined), the GI50 in the assay on 786-0, in the assay with A498, in the assay with A549, in the assay with ACHN, with DU-145 and in the assay on EKVX was > 100 µM (inactive) in each case. The GI50 in the assay on HOP-62, in the assay on Hs-578T, in the assay with M14, in the assay with MDA-MB-231, in the assay on Malme-3M and in the assay with NCI-H460 was > 100 µM (inactive) throughout. For the same molecule, the GI50 in the assay with RPMI-8226, in the assay on SF-295, with SK-MEL-5, with SK-OV-3, in the assay on SNB-75 and with SR was > 100 µM (inactive) each time. The GI50 in the assay on TK-10 was > 100 µM (inactive).

Turning to `O=C1Nc2ccccc2/C1=N/NC(=S)N1CCCCCC1`, the GI50 in the assay with 786-0 was 0.332 µM (active); in the assay with A498, 1.07 µM (active); in the assay with A549, 0.643 µM (active); in the assay with ACHN, 0.824 µM (active); with DU-145 it was 2.2 µM (inactive); in the assay on EKVX it was 0.851 µM (active). For the same molecule, the GI50 with HOP-62 is 0.242 µM (active); in the assay with M14, 0.684 µM (active); in the assay with MDA-MB-231 it was 0.56 µM (active); in the assay with Malme-3M it was 0.272 µM (active); in the assay with NCI-H460 it was 0.09 µM (active); with PC-3, 0.453 µM (active). Further, the GI50 with RPMI-8226 was 0.824 µM (active); in the assay on SF-295 it was 1 µM (active); in the assay with SK-MEL-5, 0.0723 µM (active); with SK-OV-3, 1.65 µM (inactive); in the assay on SNB-75 it was 1.69 µM (inactive); with SR, 0.212 µM (active). The GI50 with TK-10 is 1.8 µM (inactive).

Take `c1ccc(C(C2=Nc3cccc4cccc(c34)N2)c2ccccc2)cc1`: the GI50 in the assay on 786-0 was 26.2 µM (inactive); in the assay on A549, 37.2 µM (inactive); in the assay with ACHN, 19.3 µM (inactive); in the assay with DU-145 it was 32.2 µM (inactive); in the assay on EKVX, 30.3 µM (inactive); with HOP-62, 23.1 µM (inactive). In addition, the GI50 is 27 µM (inactive) with Hs-578T; 18.1 µM (inactive) with M14; 30.8 µM (inactive) with MDA-MB-231; 27.8 µM (inactive) with Malme-3M; 24.7 µM (inactive) in the assay on NCI-H460; 23 µM (inactive) in the assay with PC-3. The GI50 in the assay on RPMI-8226 is 21.6 µM (inactive); with SF-295, 21.1 µM (inactive); with SK-MEL-5, 20.5 µM (inactive); with SK-OV-3, 21.5 µM (inactive); in the assay on SNB-75, 22.3 µM (inactive); with TK-10, 47.9 µM (inactive).
